“Also recorded” adds a separate entry of the source.
How the values were obtained:
primary RPE cultures = experiment: Ceramide in primary RPE cultures treated with adiporon; assay type: cell-based, porcine; conditions: 0.01-1 μM, 3 h
[1] = tested on: polarized primary RPE cultures; experiment: Complement-mediated mitochondrial fragmentation in polarized primary RPE monolayers (A2E + NHS, MitoTracker live imaging); assay type: cell-based, porcine
Description: Highly differentiated polarized primary RPE cultures were established from freshly harvested porcine eyes as described (Toops et al., 2014). To induce complement-mediate mitochondrial injury, RPE monolayers were treated with the lipofuscin bisretinoid A2E, which compromises mechanisms that protect the RPE from complement activation (Tan et al., 2016). RPE cells were exposed to active complement components (10% normal human serum, NHS, for 10 min at 37° C.) to induce complement activation on the RPE cell surface. […] After NHS exposure, cells were treated with 1 μM zoledronic acid for 3 h. RPE mitochondria were labeled with MitoTracker Deep Red and cells were imaged live on a Nikon spinning disc confocal microscopy as we have described (Tan et al., 2016; La Cunza et al., 2021). Mitochondrial surfaces were reconstructed from 4-dimensional images using Imaris (Bitplane).
Highly differentiated polarized primary RPE cultures were established from freshly harvested porcine eyes as described (Toops et al., 2014). To induce complement-mediate mitochondrial injury, RPE monolayers were treated with the lipofuscin bisretinoid A2E, which compromises mechanisms that protect the RPE from complement activation (Tan et al., 2016). RPE cells were exposed to active complement components (10% normal human serum, NHS, for 10 min at 37° C.) to induce complement activation on the RPE cell surface. […]

[2] = biological target: T1, acid sphingomyelinase (ASM) (Homo sapiens, UniProt P17405); conditions: functional ASM inhibitor, prior publication; cited from earlier work
T1 sequence (P17405 47-631): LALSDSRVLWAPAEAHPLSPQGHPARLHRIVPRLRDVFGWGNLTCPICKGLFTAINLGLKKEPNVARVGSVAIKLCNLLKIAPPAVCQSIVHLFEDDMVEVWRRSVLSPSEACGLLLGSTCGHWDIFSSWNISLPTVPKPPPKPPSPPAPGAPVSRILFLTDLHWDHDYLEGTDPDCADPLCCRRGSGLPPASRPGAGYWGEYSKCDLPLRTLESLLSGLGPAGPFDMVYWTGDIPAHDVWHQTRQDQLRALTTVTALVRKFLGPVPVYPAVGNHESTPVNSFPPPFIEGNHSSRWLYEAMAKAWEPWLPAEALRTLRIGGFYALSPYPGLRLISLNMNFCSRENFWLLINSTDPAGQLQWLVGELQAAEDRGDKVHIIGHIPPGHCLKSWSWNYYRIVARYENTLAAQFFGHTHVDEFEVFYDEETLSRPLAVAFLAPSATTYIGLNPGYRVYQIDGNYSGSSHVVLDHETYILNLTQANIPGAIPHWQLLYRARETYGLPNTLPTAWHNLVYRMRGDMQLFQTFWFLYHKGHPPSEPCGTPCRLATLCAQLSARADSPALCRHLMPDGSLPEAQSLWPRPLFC

| SMILES | ceramide in primary RPE cultures (primary RPE cultures) | complement-mediated mitochondrial fragmentation in the RPE in vitro ([1]; 1 μM for 3 h after NHS exposure (FIG. 5, FIG. 9)) | complement-induced mitochondrial injury in primary RPE cultures ([1]; 0.01-1 μM, 3 h (0.01 μM data not shown)) | ceramide accumulation (prior work) [2] |
| --- | --- | --- | --- | --- |
| O=C(COc1ccc(C(=O)c2ccccc2)cc1)NC1CCN(Cc2ccccc2)CC1 [adiporon] | effective in decreasing ceramide | prevented complement-mediated mitochondrial fragmentation | preventing complement-induced mitochondrial injury | – |
| CNCCCN1c2ccccc2CCc2ccccc21 [desipramine] | – | – | – | decreases ceramide alone; also recorded: can effectively inhibit ceramide accumulation |

From US20250295678A1, “ULTRA LOW DOSAGE ZOLEDRONIC ACID FOR TREATMENT OF RETINAL DISEASE” (The Regents of the University of California, priority 2022, published 2025)
